Several values for one entry are separate records, joined by “and”; a condition that tells them apart may be missing. Identical values can stand only once.
Tests used:
[1] = test system: HT-29; experiment: Antiproliferative activity against Colon cancer HT-29 cell line; assay type: functional, cell-based, Homo sapiens
[2] = test system: A549; experiment: Antiproliferative activity against human cancer A-549 cell line; assay type: functional, cell-based
[3] = test system: HEp-2; experiment: Antiproliferative activity against human cancer Hep-2 cell line; assay type: functional, cell-based
[4] = test system: SW-620; experiment: Antiproliferative activity against colon cancer SW-620 cell line; assay type: functional, cell-based; settings: Homo sapiens
[5] = test system: DU-145; experiment: Antiproliferative activity against human cancer DU-145 cell line; assay type: functional, cell-based
[6] = test system: HOP-62; experiment: Antiproliferative activity against human cancer HOP-62 cell line; assay type: functional, cell-based
[7] = test system: SK-OV-3; experiment: Antiproliferative activity against human cancer SKOV-3 cell line; assay type: functional, cell-based
[8] = test system: SNB-78; experiment: Antiproliferative activity against human cancer SNB-78 cell line; assay type: functional, cell-based
[9] = test system: OVCAR-5; experiment: Antiproliferative activity against human cancer OVCAR-5 cell line; assay type: functional, cell-based
[10] = test system: PC-3; experiment: Antiproliferative activity against prostate cancer PC-3 cell line; assay type: functional, cell-based, Homo sapiens
[11] = test system: HCT-15; experiment: Antiproliferative activity against human colon cancer HCT-15 cell line; assay type: functional, cell-based
[12] = test system: SiHa; experiment: Antiproliferative activity against human SIHA cell line; assay type: functional, cell-based
[13] = test system: SW-620; experiment: Inhibitory concentration against human colon cancer SW-620 cell line; assay type: functional, cell-based

SMILES	IC50 ([1]; Homo sapiens, HT-29)	IC50 ([2]; Homo sapiens, A549)	IC50 [3]	IC50 ([5]; Homo sapiens, DU-145)	IC50 ([6]; Homo sapiens, HOP-62)	IC50 ([8]; Homo sapiens, SNB-78)	IC50 ([9]; Homo sapiens, OVCAR-5)	IC50 ([10]; Homo sapiens, PC-3)	IC50 [11]	IC50 ([12]; Homo sapiens, SiHa)	IC50 ([13]; Homo sapiens, SW-620)	other results
COc1cc(C(=O)/C=C/c2ccccc2)cc(OC)c1OC	14.4 µM	21.3 µM	7.55 µM	25.4 µM	20.5 µM	22.8 µM	8.9 µM	41.1 µM	8.77 µM	36.5 µM	–	IC50 [4]: 16 µM; IC50 [7]: 21 µM
COc1ccc(C2NN=C(c3cc(OC)c(OC)c(OC)c3)C2O)cc1OC (stereo not drawn)	8.43 µM	10 µM	–	–	10.7 µM	–	8.76 µM	–	12 µM	–	8.63 µM	–
COc1cc(C2=NNC(c3cc(OC)c(OC)c(OC)c3)C2O)cc(OC)c1OC (stereo not drawn)	7.41 µM	15.6 µM	–	94.1 µM	20.4 µM	–	20.6 µM	108 µM	8.35 µM	83 µM	13.6 µM	–
COc1cc(-c2nn(C(C)=O)c(-c3ccc4c(c3)OCO4)c2OC(C)=O)cc(OC)c1OC	15.6 µM	–	61.6 µM	48 µM	18.4 µM	33 µM	–	18.1 µM	8.9 µM	58.1 µM	–	IC50 [7]: 39.1 µM
COc1cc(C(=O)/C=C/c2ccc3c(c2)OCO3)cc(OC)c1OC	–	–	10.1 µM	19.8 µM	9.61 µM	16.7 µM	5.65 µM	11.7 µM	23.7 µM	12.8 µM	–	–
COc1ccc(-c2cc(-c3cc(OC)c(OC)c(OC)c3)[nH]n2)cc1	–	–	–	24 µM	–	–	9.54 µM	15.8 µM	–	15.9 µM	5.15 µM	IC50 ([1]; ht-29): 2.95 µM and 0.62 µM; IC50 ([2]; a549): 4.35 µM and 1.01 µM; IC50 ([5]; du-145): 27 µM; IC50 ([6]; hop-62): 4.81 µM and 0.65 µM; IC50 ([8]; snb-78): 21 µM and 50 µM; IC50 ([9]; ovcar-5): 7.85 µM; IC50 ([10]; pc-3): 11.1 µM; IC50 ([13]; sw-620): 3.41 µM; IC50 ([12]; siha): 14.5 µM
COc1ccc(C2NN=C(c3cc(OC)c(OC)c(OC)c3)C2O)cc1 (stereo not drawn)	0.96 µM	1.07 µM	7.81 µM	–	0.94 µM	–	13 µM	15.2 µM	0.96 µM	20.1 µM	2.67 µM	–
COc1cccc(C2NN=C(c3cc(OC)c(OC)c(OC)c3)C2O)c1 (stereo not drawn)	5.95 µM	7.2 µM	–	–	8.1 µM	–	7.05 µM	28 µM	7.85 µM	–	7.35 µM	–
COc1cc(C(=O)/C=C/c2ccc(F)cc2)cc(OC)c1OC	–	–	10 µM	13.3 µM	24.7 µM	13.8 µM	18.3 µM	11.7 µM	11.7 µM	7.92 µM	–	–
COc1cc(-c2cc(-c3ccc(Cl)cc3)[nH]n2)cc(OC)c1OC	8.09 µM	15.8 µM	–	–	12.3 µM	14 µM	8.61 µM	–	6.45 µM	–	4.96 µM	–
COc1cccc(C(=O)/C=C/c2cc(OC)c(OC)c(OC)c2)c1	7.08 µM	8.07 µM	13.7 µM	14.9 µM	10.1 µM	10 µM	9 µM	11.6 µM	4.9 µM	10.9 µM	–	–
COc1ccc(/C=C/C(=O)c2cc(OC)c(OC)c(OC)c2)cc1OC	6.64 µM	6.9 µM	6.15 µM	9.21 µM	8.12 µM	22.8 µM	8.3 µM	7.85 µM	7.95 µM	9.35 µM	5.8 µM	IC50 [7]: 6.09 µM
COc1cc(/C=C/C(=O)c2ccc(OC(C)=O)cc2)cc(OC)c1OC	8.37 µM	12 µM	13.1 µM	–	56.1 µM	–	–	–	7.75 µM	13.3 µM	–	–
COc1cc(C(=O)/C=C/c2ccc(Cl)cc2)cc(OC)c1OC	–	–	12 µM	28.1 µM	26.9 µM	25.4 µM	16.8 µM	24.1 µM	24 µM	40 µM	–	–
COc1ccc(-c2cc(-c3cc(OC)c(OC)c(OC)c3)nn2C(C)=O)cc1OC	10.4 µM	10 µM	–	–	22.1 µM	–	16.7 µM	–	16 µM	54.8 µM	16.1 µM	–
COc1cc(C2=NNC(c3ccc4c(c3)OCO4)C2O)cc(OC)c1OC (stereo not drawn)	5.89 µM	6.74 µM	40 µM	34.7 µM	20.3 µM	53.7 µM	6.81 µM	34.5 µM	–	43 µM	6.75 µM	–
COc1cc(C(=O)/C=C/c2cc(OC)c(OC)c(OC)c2)ccc1O	20.2 µM	19.2 µM	6.01 µM	–	20.2 µM	–	–	–	7.75 µM	40.4 µM	–	–
COc1cc(C2=NNC(c3ccc(F)cc3)C2O)cc(OC)c1OC (stereo not drawn)	6.01 µM	5.72 µM	–	–	6.55 µM	–	7.15 µM	–	8.45 µM	–	5.85 µM	–
COc1cc(/C=C/C(=O)c2cc(OC)c(OC)c(OC)c2)cc(OC)c1OC	–	–	7.75 µM	–	10 µM	–	9.23 µM	–	6.55 µM	8.55 µM	–	–
COc1cc(-c2cc(-c3ccc4c(c3)OCO4)[nH]n2)cc(OC)c1OC	6.01 µM	8.85 µM	34 µM	8.56 µM	13.5 µM	74 µM	33 µM	9.55 µM	15.6 µM	10 µM	9.25 µM	–
COc1ccc(-c2cc(-c3cc(OC)c(OC)c(OC)c3)[nH]n2)cc1OC	0.47 µM	0.87 µM	8.41 µM	–	0.93 µM	–	4.4 µM	2.64 µM	0.25 µM	3.63 µM	0.23 µM	–
COc1cc(-c2cc(-c3cc(OC)c(OC)c(OC)c3)[nH]n2)cc(OC)c1OC	5.62 µM	7.58 µM	6.43 µM	35.1 µM	–	22 µM	9.95 µM	13.3 µM	6.01 µM	25 µM	10 µM	–
COc1cc(C(=O)/C=C/c2cc(OC)c(OC)c(OC)c2)ccc1OC(C)=O	10.5 µM	15.6 µM	6.95 µM	–	9.2 µM	–	–	–	7.75 µM	33 µM	–	IC50 [7]: 8.35 µM
COc1cc(/C=C/C(=O)c2ccccc2)cc(OC)c1OC	12 µM	8.96 µM	11.9 µM	–	16.6 µM	–	–	–	15.8 µM	20.8 µM	8.45 µM	IC50 [7]: 56.5 µM
COc1cc(-c2cc(-c3ccc(F)cc3)[nH]n2)cc(OC)c1OC	4.75 µM	3.8 µM	3.81 µM	3.87 µM	0.56 µM	22.4 µM	6.45 µM	8.93 µM	0.48 µM	1.08 µM	5.9 µM	–
COc1cc(C2=NNC(c3ccc(Cl)cc3)C2O)cc(OC)c1OC (stereo not drawn)	11.1 µM	15.1 µM	–	–	20.4 µM	–	8.65 µM	34.6 µM	9.45 µM	56.4 µM	8.41 µM	–
